Measured values as given in a compilation of properties of binary mixtures (doi:10.1016/j.molliq.2022.118933).

Experiment: xn = mol fraction of the nth substance listed
Settings: 100 kPa

CCCC[N+](C)(C)C[c-]1cccc1.O=S(=O)([N-]S(=O)(=O)C(F)(F)F)C(F)(F)F.[Fe+2].c1cc[cH-]c1 + CC#N
Settings	electrical conductivity [S/m]
298 K, x1 = 0.01	1.35
298 K, x1 = 0.02	1.89
298 K, x1 = 0.05	2.2
298 K, x1 = 0.06	2.14
298 K, x1 = 0.07	2.07
298 K, x1 = 0.08	1.96
298 K, x1 = 0.1	1.8
298 K, x1 = 0.12	1.45
298 K, x1 = 0.15	1.17
298 K, x1 = 0.2	0.759
303 K, x1 = 0.01	1.41
303 K, x1 = 0.02	1.98
303 K, x1 = 0.03	2.28
303 K, x1 = 0.05	2.32
303 K, x1 = 0.06	2.28
303 K, x1 = 0.07	2.2
303 K, x1 = 0.08	2.07
303 K, x1 = 0.12	1.57
303 K, x1 = 0.15	1.24
303 K, x1 = 0.2	0.843
308 K, x1 = 0.01	1.47
308 K, x1 = 0.02	2.06
308 K, x1 = 0.03	2.39
308 K, x1 = 0.05	2.45
308 K, x1 = 0.06	2.41
308 K, x1 = 0.07	2.33
308 K, x1 = 0.1	2.01
308 K, x1 = 0.12	1.7
308 K, x1 = 0.15	1.36
313 K, x1 = 0.01	1.53
313 K, x1 = 0.02	2.15
313 K, x1 = 0.03	2.5
313 K, x1 = 0.05	2.57
313 K, x1 = 0.06	2.54
313 K, x1 = 0.08	2.34
313 K, x1 = 0.1	2.14
313 K, x1 = 0.12	1.81
313 K, x1 = 0.15	1.46
313 K, x1 = 0.2	1.04
318 K, x1 = 0.02	2.23
318 K, x1 = 0.03	2.6
318 K, x1 = 0.05	2.7
318 K, x1 = 0.07	2.61
318 K, x1 = 0.1	2.28
318 K, x1 = 0.12	1.94
323 K, x1 = 0.02	2.33
323 K, x1 = 0.03	2.71
323 K, x1 = 0.05	2.82
323 K, x1 = 0.06	2.8
323 K, x1 = 0.07	2.74
323 K, x1 = 0.08	2.6
323 K, x1 = 0.1	2.41
323 K, x1 = 0.12	2.07
323 K, x1 = 0.15	1.69
328 K, x1 = 0.01	1.69
328 K, x1 = 0.02	2.42
328 K, x1 = 0.03	2.82
328 K, x1 = 0.06	2.93
328 K, x1 = 0.07	2.87
328 K, x1 = 0.08	2.74
328 K, x1 = 0.1	2.55
328 K, x1 = 0.15	1.82
328 K, x1 = 0.2	1.34
333 K, x1 = 0.05	3.08
333 K, x1 = 0.06	3.06
333 K, x1 = 0.08	2.88
333 K, x1 = 0.1	2.69
333 K, x1 = 0.12	2.32
333 K, x1 = 0.15	1.94
333 K, x1 = 0.2	1.46
338 K, x1 = 0.01	1.8
338 K, x1 = 0.02	2.59
338 K, x1 = 0.03	3.03
338 K, x1 = 0.06	3.21
338 K, x1 = 0.08	3.02
338 K, x1 = 0.1	2.83
338 K, x1 = 0.12	2.46
338 K, x1 = 0.15	2.06
338 K, x1 = 0.2	1.57
343 K, x1 = 0.01	1.86
343 K, x1 = 0.02	2.67
343 K, x1 = 0.03	3.14
343 K, x1 = 0.05	3.33
343 K, x1 = 0.06	3.34
343 K, x1 = 0.1	2.96
343 K, x1 = 0.12	2.6
343 K, x1 = 0.2	1.7
348 K, x1 = 0.01	1.91
348 K, x1 = 0.03	3.24
348 K, x1 = 0.05	3.45
348 K, x1 = 0.06	3.46
348 K, x1 = 0.1	3.11
348 K, x1 = 0.15	2.32
348 K, x1 = 0.2	1.81
